Test results: patent EP2027850A1, “Pharmaceutical compositions containing voriconazole” (SANDOZ AG, priority 2007, dated 2009)

Assay: solubility of voriconazole in N-methylpyrrolidone and water / NMP mixtures
Assay type: physicochemical
Protocol: This can also be used to improve the solubility of voriconazole in aqueous solutions.
0.210 g Voriconazole are dissolved in 50 mL N-Methylpyrrolidone (NMP) using a magnetic stirrer. Further aliquots of 0.305 g, 0.519 g and 1.009 Voriconazole are added to NMP-solution using magnet stirring. Solution I is obtained, composed of […] Voriconazole in 50 mL NMP.
0.45 - 0.55 g Voriconazole are dissolved in NMP according to example 1. After obtaining a clear solution, solutions are made up with water to 20.0 mL.
Therefore, in 20 mL solution, 0.5 g Voriconazole can be dissolved with water / NMP mixtures.

Compound: C[C@@H](c1ncncc1F)[C@](O)(Cn1cncn1)c1ccc(F)cc1F [Voriconazole, (2R,3S)-2-(2,4-Difluorophenyl)-3-(5-fluoro-4-pyrimidinyl)-1-(1H-1,2,4-triazol-1-yl)-butan-2-ol]
- solubility in N-methylpyrrolidone: extremely high
